Numbers after ± are expanded uncertainties.
Tests used:
[1] = 101.33 kPa, Liquid; for electrical conductivity: Direct current cell with electrodes; for mass density: Vibrating tube method
[2] = mn = molality of the nth substance listed, in mol/kg; conditions: 100 kPa, Liquid, Capillary tube (Ostwald / Ubbelohde) method, m2 = 0

In the case of `O` [water], the viscosity ([1]; 293.15 K, Capillary tube (Ostwald / Ubbelohde) method) is reported as 1.003 ± 0.021 mPa·s, the viscosity ([1]; 298.15 K, Capillary tube (Ostwald / Ubbelohde) method) is reported as 0.89 ± 0.019 mPa·s and the viscosity ([1]; 303.15 K, Capillary tube (Ostwald / Ubbelohde) method) is reported as 0.797 ± 0.017 mPa·s. The viscosity ([1]; 308.15 K, Capillary tube (Ostwald / Ubbelohde) method) was 0.719 ± 0.015 mPa·s and the viscosity ([1]; 313.15 K, Capillary tube (Ostwald / Ubbelohde) method) was 0.653 ± 0.014 mPa·s.

With `CCCCn1cc[n+](C)c1.O=C([O-])c1ccccc1O` [1-butyl-3-methylimidazolium salicylate] the viscosity ([1]; 293.15 K, Cone and plate viscometry) was 1194.1 ± 80 mPa·s, the electrical conductivity ([1]; 293.15 K) was 0.0182 ± 0.0006 S/m and the mass density ([1]; 293.15 K) was 1152.27 ± 4.6 kg/m3. It also gave a viscosity ([1]; 298.15 K, Cone and plate viscometry) of 777.63 ± 46 mPa·s, an electrical conductivity ([1]; 298.15 K) of 0.0281 ± 0.0008 S/m and a mass density ([1]; 298.15 K) of 1149.05 ± 4.5 kg/m3. It also gave a viscosity ([1]; 303.15 K, Cone and plate viscometry) of 501.42 ± 26 mPa·s, an electrical conductivity ([1]; 303.15 K) of 0.0447 ± 0.0013 S/m and a mass density ([1]; 303.15 K) of 1145.65 ± 4.5 kg/m3. The viscosity ([1]; 308.15 K, Cone and plate viscometry) was 338.14 ± 15 mPa·s, the electrical conductivity ([1]; 308.15 K) was 0.0692 ± 0.0021 S/m and the mass density ([1]; 308.15 K) was 1142.22 ± 4.5 kg/m3. For the same compound, the viscosity ([1]; 313.15 K, Cone and plate viscometry) was 240 ± 9.8 mPa·s, the electrical conductivity ([1]; 313.15 K) was 0.0965 ± 0.0029 S/m and the mass density ([1]; 313.15 K) was 1138.76 ± 4.5 kg/m3. For the same compound, the viscosity ([1]; 318.15 K, Cone and plate viscometry) was 167.97 ± 6.1 mPa·s, the electrical conductivity ([1]; 318.15 K) was 0.156 ± 0.0047 S/m and the viscosity ([1]; 323.15 K, Cone and plate viscometry) was 127.06 ± 4.2 mPa·s. It also gave an electrical conductivity ([1]; 323.15 K) of 0.22 ± 0.0066 S/m.

In the case of `O` [water] + CCCCn1cc[n+](C)c1.O=C([O-])c1ccccc1O, the viscosity ([2]; 293.15 K) is reported as 1.003 ± 0.021 mPa·s, the viscosity ([2]; 298.15 K) is reported as 0.89 ± 0.019 mPa·s and the viscosity ([2]; 303.15 K) is reported as 0.797 ± 0.017 mPa·s. For the same compound, the viscosity ([2]; 308.15 K) was 0.719 ± 0.015 mPa·s and the viscosity ([2]; 313.15 K) was 0.653 ± 0.014 mPa·s.

— the NIST ThermoML archive (doi:10.1016/j.jct.2015.10.001)
